In patent US20220256889A1, “PEPTIDES THAT MODULATE CALCIUM-SENSING RECEPTOR ACTIVITY FOR MODULATING KOKUMI TASTE AND PET FOOD PRODUCTS CONTAINING THE SAME” (MARS, INCORPORATED, priority 2019, published 2022):
Where a SMILES comes first, the peptide text is derived from it. Where no end group is shown, it is not given here. [ ]: non-standard residue; d: D form. pY = N[CH](Cc1ccc(OP(=O)(O)O)cc1)C(=O)O; pT = C[CH](OP(=O)(O)O)[CH](N)C(=O)O; pS = N[CH](COP(=O)(O)O)C(=O)O

B1: Asp-Val-Glu (peptide)
peptide: DVE

Biological target: feline calcium-sensing receptor (CaSR) (feline (cat))
Experiment: cell-based or functional assay
Conditions: not given

Molecule | f-CaSR activity (EC50) [mM]
DIG[pS]E[pS]TEDQA | 2
EIVPN[pS]AEE | 3.16
IG[pS]E[pS]TEDQ | 2
IG[pS]E[pS]TEDQA | 2

Biological target: T1, feline calcium-sensing receptor (CaSR) (feline (cat))
T1 chain: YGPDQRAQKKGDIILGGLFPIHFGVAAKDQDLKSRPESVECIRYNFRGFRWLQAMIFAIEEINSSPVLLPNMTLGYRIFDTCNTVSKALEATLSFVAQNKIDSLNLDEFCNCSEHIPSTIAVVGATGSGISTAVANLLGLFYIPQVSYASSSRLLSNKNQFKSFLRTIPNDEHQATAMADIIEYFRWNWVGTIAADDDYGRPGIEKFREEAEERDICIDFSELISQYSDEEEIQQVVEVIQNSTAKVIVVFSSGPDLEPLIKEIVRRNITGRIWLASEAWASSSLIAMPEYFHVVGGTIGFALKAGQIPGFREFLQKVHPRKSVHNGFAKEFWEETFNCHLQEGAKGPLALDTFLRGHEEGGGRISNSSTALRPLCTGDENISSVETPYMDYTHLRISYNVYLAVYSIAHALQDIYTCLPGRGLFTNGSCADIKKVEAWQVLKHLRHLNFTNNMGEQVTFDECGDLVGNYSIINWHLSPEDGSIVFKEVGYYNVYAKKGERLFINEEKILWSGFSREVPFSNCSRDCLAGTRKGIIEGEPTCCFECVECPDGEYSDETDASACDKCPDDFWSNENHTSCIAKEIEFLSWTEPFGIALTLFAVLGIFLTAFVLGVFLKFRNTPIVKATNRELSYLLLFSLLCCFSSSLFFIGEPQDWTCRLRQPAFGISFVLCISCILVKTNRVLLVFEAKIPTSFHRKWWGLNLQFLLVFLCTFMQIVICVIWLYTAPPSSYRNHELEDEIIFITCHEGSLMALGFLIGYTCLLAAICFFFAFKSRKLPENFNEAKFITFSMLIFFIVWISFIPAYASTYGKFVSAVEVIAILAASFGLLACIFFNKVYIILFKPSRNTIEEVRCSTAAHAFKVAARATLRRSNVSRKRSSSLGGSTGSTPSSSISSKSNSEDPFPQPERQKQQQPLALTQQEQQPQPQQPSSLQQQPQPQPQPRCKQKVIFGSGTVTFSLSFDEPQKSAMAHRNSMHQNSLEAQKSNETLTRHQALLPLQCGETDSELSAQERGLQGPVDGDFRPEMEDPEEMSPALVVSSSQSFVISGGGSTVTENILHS
Experiment: cell-based or functional assay
Conditions: not given

Molecule | f-CaSR activity (EC50) [mM]
B1 | 6.32

Biological target: feline CaSR (Felis catus, UniProt A0ABI7YY68)
Experiment: HEK T-Rex/natClytin-fCaSR luminescence assay, activation of feline CaSR
Type: cell-based
Conditions: not given
Description: The cells used for the assays were HEK293 derived HEK T-Rex/natClytin-fCaSR cells. For the assays, the cells were plated on […] culture plates with a clear bottom for reading the luminescence in the wells. The setup of the assay for standard assays on the FlexStation was as follows. The wells containing the cells had 20 ul of calcium-free Tyrode's buffer at the beginning of the assay. 20 ul of each ligand at a specified concentration was injected on the cells and the response of the cells was measured for 90 sec at 1.94 sec intervals. The resulting curves were analyzed and reduced using the software provided by Molecular Devices, SoftMax Pro (version 5.4.1).
Each peptide was assayed on two separate occasions at least, with four repetitions of each concentration applied to the cells. In parallel, the same tests were run on a mock cell line with a mock vector, in order to confirm the specificity of any signals measured.
The data obtained from the FlexStation was used to trace dose-response curves for each ligand. These graphs were plotted using GraphPad Prism 7.03 software with the [Agonist] vs. response—Variable slope (four parameters) plot. The same formula was used to calculate the EC50 value with the associated Standard Error. Each plot contains the mean data points with an SEM calculated by the software for each data point.
One of the concerns during the planning of these assays was that it was possible that some of these peptides could bind the divalent calcium cation and cause a non-specific response from the receptor. In order to ensure that the interaction between the receptor and the peptides was measured and not with calcium, the peptides were synthesized in guaranteed calcium-free conditions. Similarly, all the assays were performed using calcium-free reagents.

Molecule | EC50 [mM]
CC(NC(=O)C(N)CC(=O)O)C(=O)NC(CCC(=O)O)C(=O)O (stereo not drawn) [Asp-Ala-Glu] (H-Asp-Ala-Glu-OH; configuration not given here) | 3.54 ± 0.05
NC(CC(=O)O)C(=O)NC(CCC(=O)O)C(=O)NC(CCC(=O)O)C(=O)O (stereo not drawn) [Asp-Glu-Glu] (H-Asp-Glu-Glu-OH; configuration not given here) | 2.59 ± 0.09
CC(C)C(NC(=O)C(N)CC(=O)O)C(=O)NC(CC(=O)O)C(=O)O (stereo not drawn) [Asp-Val-Asp] (H-Asp-Val-Asp-OH; configuration not given here) | 3.41 ± 0.05
CC(C)C(NC(=O)C(N)CC(=O)O)C(=O)NC(CCC(=O)O)C(=O)O (stereo not drawn) [BC 01, Asp-Val-Glu] (H-Asp-Val-Glu-OH; configuration not given here) | 3.3 ± 0.15
CC[C@H](C)[C@H](N)C(=O)NCC(=O)N[C@@H](COP(=O)(O)O)C(=O)N[C@@H](CCC(=O)O)C(=O)N[C@@H](COP(=O)(O)O)C(=O)N[C@H](C(=O)N[C@@H](CCC(=O)O)C(=O)N[C@@H](CC(=O)O)C(=O)N[C@@H](CCC(N)=O)C(=O)O)[C@@H](C)O [BC 06, Ile-Gly-pSer-Glu-pSer-Thr-Glu-Asp-Gln] (H-IG[pS]E[pS]TEDQ-OH; N-terminus and C-terminus assumed) | ~1.6
CC(C)C(NC(=O)C(N)CS)C(=O)NC(CS)C(=O)O (stereo not drawn) [Cys-Val-Cys] (H-Cys-Val-Cys-OH; configuration not given here) | ~12.6
N[C@@H](CCC(=O)O)C(=O)O [Glu, glutamic acid, reference compound] | ~5.9
CC(C)C(NC(=O)C(N)CCC(=O)O)C(=O)NC(CC(=O)O)C(=O)O (stereo not drawn) [Glu-Val-Asp] | 3.32 ± 0.77
CC(C)C(NC(=O)C(N)CCC(=O)O)C(=O)NC(CCC(=O)O)C(=O)O (stereo not drawn) [Glu-Val-Glu] (H-Glu-Val-Glu-OH; configuration not given here) | 3.54 ± 0.05
NC(CO)C(=O)NC(CCC(=O)O)C(=O)NC(CO)C(=O)O (stereo not drawn) [Ser-Glu-Ser] (H-Ser-Glu-Ser-OH; configuration not given here) | 3.56 ± 0.11
CC(C)C(NC(=O)C(N)COP(=O)(O)O)C(=O)NC(CCC(=O)O)C(=O)O (stereo not drawn) [pSer-Val-Glu] (H-[pS]-Val-Glu-OH; configuration not given here) | 3.04 ± 0.03
NC(Cc1ccc(OP(=O)(O)O)cc1)C(=O)NC(CCC(=O)O)C(=O)NC(Cc1ccc(OP(=O)(O)O)cc1)C(=O)O (stereo not drawn) [pTyr-Glu-pTyr] (H-[pY]-Glu-[pY]-OH; configuration not given here) | 2.22 ± 0.22
CC(C)[C@H](NC(=O)CC[C@H](N)C(=O)O)C(=O)NCC(=O)O [γ-Glu-Val-Gly, reference compound] | 5.78 ± 2.41

Same assay, conditions: HEK T-Rex/natClytin-fCaSR cells, calcium-free Tyrode's buffer; ≈ values are model estimates without standard error; read-out: EC50 ± Std Error

Molecule | EC50 [mM]
N[C@@H](CC(=O)O)C(=O)O [Asp, aspartic acid, reference compound] | ~6.1
[Ca+2].[Cl-].[Cl-] [CaC12, CaCl2, reference compound] | 1.6 ± 0.06
N[C@@H](CCC(=O)N[C@@H](CS)C(=O)NCC(=O)O)C(=O)O [GSH, reference compound] | 6.71 ± 0.57
[Cl-].[Cl-].[Mg+2] [MgC12, reference compound] | 6.72 ± 0.13
NC(COP(=O)(O)O)C(=O)NC(CCC(=O)O)C(=O)NC(COP(=O)(O)O)C(=O)O (stereo not drawn) [pSer-Glu-pSer] (H-[pS]-Glu-[pS]-OH; configuration not given here) | 3.04 ± 0.21
CC(C)C(NC(=O)C(N)COP(=O)(O)O)C(=O)NC(COP(=O)(O)O)C(=O)O (stereo not drawn) [pSer-Val-pSer] (H-[pS]-Val-[pS]-OH; configuration not given here) | 2.63 ± 0.04
CC(OP(=O)(O)O)C(N)C(=O)NC(CCC(=O)O)C(=O)NC(C(=O)O)C(C)OP(=O)(O)O (stereo not drawn) [pThr-Glu-pThr] (H-[pT]-Glu-[pT]-OH; configuration not given here) | 1.98 ± 0.07
CSCC[C@H](NC(=O)CC[C@H](N)C(=O)O)C(=O)O [γ-Glu-Met, reference compound] | ~6.7
N[C@@H](CCC(=O)N[C@@H](Cc1ccccc1)C(=O)O)C(=O)O [γ-Glu-Phe, reference compound] | ~7.8
N[C@@H](CCC(=O)N[C@@H](Cc1ccc(O)cc1)C(=O)O)C(=O)O [γ-Glu-Tyr, reference compound] | ~6.9
CC(C)[C@H](NC(=O)CC[C@H](N)C(=O)O)C(=O)O [γ-Glu-Val, reference compound] | ~3.9

Test system: feline Kokumi taste receptor (f-CaSR)
Experiment: feline Kokumi taste receptor assay (f-CaSR), agonistic activity of isolated samples
Type: cell-based
Conditions: isolated samples from hydrolysate T648
Description: Aliquots of the isolated samples were tested for their agonistic activity in feline Kokumi taste receptor assays (f-CaSR).

Molecule | f-CaSR activity (EC50) | EC50 [mM]
5-oxoproline-Lys-Glu-Pro [BC 02] | Not active | –
CC(C)C(NC(=O)C(N)CC(=O)O)C(=O)NC(CCC(=O)O)C(=O)O (stereo not drawn) [BC 01, Asp-Val-Glu] (H-Asp-Val-Glu-OH; configuration not given here) | – | 6.32
CC[C@H](C)[C@H](N)C(=O)NCC(=O)N[C@@H](COP(=O)(O)O)C(=O)N[C@@H](CCC(=O)O)C(=O)N[C@@H](COP(=O)(O)O)C(=O)N[C@H](C(=O)N[C@@H](CCC(=O)O)C(=O)N[C@@H](CC(=O)O)C(=O)N[C@@H](CCC(N)=O)C(=O)O)[C@@H](C)O [BC 06, Ile-Gly-pSer-Glu-pSer-Thr-Glu-Asp-Gln] (H-IG[pS]E[pS]TEDQ-OH; N-terminus and C-terminus assumed) | – | 2
CC[C@H](C)[C@H](N)C(=O)NCC(=O)N[C@@H](COP(=O)(O)O)C(=O)N[C@@H](CCC(=O)O)C(=O)N[C@@H](COP(=O)(O)O)C(=O)N[C@H](C(=O)N[C@@H](CCC(=O)O)C(=O)N[C@@H](CC(=O)O)C(=O)N[C@@H](CCC(N)=O)C(=O)N[C@@H](C)C(=O)O)[C@@H](C)O [BC 08, Ile-Gly-pSer-Glu-pSer-Thr-Glu-Asp-Gln-Ala] (H-IG[pS]E[pS]TEDQA-OH; N-terminus and C-terminus assumed) | – | 2
CC[C@H](C)[C@H](NC(=O)[C@@H](N)CCC(=O)O)C(=O)N[C@H](C(=O)N1CCC[C@H]1C(=O)N[C@@H](CC(N)=O)C(=O)N[C@@H](COP(=O)(O)O)C(=O)N[C@@H](C)C(=O)N[C@@H](CCC(=O)O)C(=O)N[C@@H](CCC(=O)O)C(=O)O)C(C)C [BC 09, Glu-Ile-Val-Pro-Asn-pSer-Ala-Glu-Glu] (H-EIVPN[pS]AEE-OH; N-terminus and C-terminus assumed) | – | 3.16
CC[C@H](C)[C@H](NC(=O)[C@@H](N)CC(=O)O)C(=O)NCC(=O)N[C@@H](COP(=O)(O)O)C(=O)N[C@@H](CCC(=O)O)C(=O)N[C@@H](COP(=O)(O)O)C(=O)N[C@H](C(=O)N[C@@H](CCC(=O)O)C(=O)N[C@@H](CC(=O)O)C(=O)N[C@@H](CCC(N)=O)C(=O)N[C@@H](C)C(=O)O)[C@@H](C)O [BC 10, Asp-Ile-Gly-pSer-Glu-pSer-Thr-Glu-Asp-Gln-Ala] (H-DIG[pS]E[pS]TEDQA-OH; N-terminus and C-terminus assumed) | – | 2
